Reference: patent US5512549A, “Glucagon-like insulinotropic peptide analogs, compositions, and methods of use” (Eli Lilly and Company, priority 1994, dated 1996)

What was measured:
[1] = tested on: Sprague Dawley or Zucker Diabetic Fatty rats; experiment: Rat IV Glucose (1 g/kg) Tolerance Test; format: in vivo; conditions: for Insulin Change AUC: 0-15 min
Protocol: a) Glucose Tolerance Tests
Experiments were conducted in overnight-fasted, conscious, male Sprague Dawley (Charles River) or Zucker Diabetic Fatty (Genetic Models, Inc.) rats weighing approximately 250 (Sprague Dawley rats) or 300 (Zucker Diabetic Fatty rats) grams. Four to five days prior the study, rats were anesthetized with isoflurane, and a polyethylene (PE50) catheter was inserted into the right jugular vein. The catheter was secured with a wound clip, filled with saline containing heparin (2% sodium heparin), and closed with a small stainless steel plug.
After a sixteen-hour fast, twelve chronically cannulated rats were separated into four groups of three rats per group. 0.4 ml of blood was taken from the tail vein, collected into a microtainer tube containing lithium heparin, and immediately placed on ice (zero minute sample). A glucose bolus (1.0 g/kg; 50% glucose (w/v) in water) was administered via the indwelling jugular cannula, and the cannula was rinsed with 200 μl of saline. Twenty seconds later a bolus of test substance 100 μl/100 g body weight of either vehicle (saline containing 0.3% (w/v) bovine serum albumin) or vehicle containing analog! was administered through the jugular cannula, and the cannula was rinsed as before. Rats were bled from the tail again at 2, 5, 10, 20 and 30 minutes after the administration of the glucose bolus, and the samples were treated as described above. At the end of the experiment, blood samples were centrifuged, and the plasma was collected.
Plasma glucose concentrations were determined the day of the experiment using a coupled hexokinase procedure in a clinical chemistry analyzer. Plasma for insulin determinations were diluted with zero calibrator and frozen at -20° C. until time for analysis. Insulin concentrations were determined using a commercial radioimmunoassay kit with rat insulin as the standard.
Insulin change (the change in insulin from the baseline value) was calculated as the difference between the insulin concentration at time t and the insulin concentration at zero time. The area under the insulin change curve was calculated using the trapezoidal rule. Plasma glucose change (the increase in plasma glucose above the baseline value) was calculated as the difference between the plasma glucose concentration at time t and the plasma glucose concentration at zero time. The area under the plasma glucose change curve was calculated using the trapezoidal rule. Values are listed as the mean ± the standard error of the mean (SEM).

beagles = experiment: Dog I.V. Hyperglycemic (150 mg/dl) Clamp Test; format: in vivo; conditions: I.V. 1.0 μg/kg
Protocol: a) Hyperglycemic Clamp Studies
Experiments were conducted in overnight-fasted, conscious, adult (1-2 years of age) male and female beagles weighing 8-15 kg. At least ten days prior to the study, animals were anesthetized with isoflurane, and a cut-down was made in the left or right inguinal region. Silastic catheters were inserted into the femoral artery and the proximal caudal femoral vein and secured with 4-0 silk suture. The free ends of the catheters were passed subcutaneously to the back using a trocar needle. The catheters were then filled with a glycerol/heparin solution (3:1, v/v; final heparin concentration of 250 KIU/ml), and the free ends were knotted and placed in a subcutaneous pocket to allow complete closure of the skin. Keflex® was administered both pre-operatively (20 mg/kg, IV and 20 mg/kg, I.M.) and post-operatively (250 mg, p.o. once daily for seven days) to prevent infections. Torbugesic (1.5 mg/kg, I.M.) was administered post-operativelyto control pain.
Blood was drawn just prior to the study day to determine the health of the animal. Only animals with hematocrits above 38% and leukocyte counts below 16,000/mm^3 were used.
The afternoon before the experiment, the free ends of the catheters were exteriorized from the subcutaneous pocket through a small incision made under local anesthesia (2% lidocaine), and the dog was fitted with a tether system jacket and collar assembly.
The morning of the experiment, the contents of the catheters were aspirated, the catheters were flushed with saline, and extension lines (protected by a stainless steel tether) were attached to the catheters. On mornings of IV injection experiments, an over-the-needle, teflon catheter was inserted percutaneously into a cephalic vein in preparation for the administration of an IV bolus of test substance. The dog was placed in a metabolic cage, and the catheter extension lines and tether were attached to a swivel system to allow the dog to move freely about the cage. At this time (-60 minutes), an exogenous infusion of glucose (50% w/v in water) was begun through the chronic venous catheter. Glucose was infused in a descending stepwise fashion over the first six minutes of the study to rapidly raise the plasma glucose concentration to 150 mg/dl. Plasma glucose concentrations were determined every 2.5 to 7.5 minutes throughout the remainder of the study, and the glucose infusion rate was adjusted appropriately to maintain the plasma glucose concentration at 150 mg/dl.
Sixty minutes after the start of the glucose infusion (time 0), test substance was administered either intravenously (1.0, 2.9, 5.0 or 10.0 μg/kg; dose dissolved in 2 ml of saline containing 0.3% dog albumin, w/v) through the previously inserted teflon catheter or subcutaneously (10 μg/kg; 150 μM in phosphate buffered saline) in the dorsal aspect of the neck.
Arterial blood samples (3.5 ml) were taken at -30, -15, 0, 2.5, 5, 7.5, 10, 12.5, 15, 20, 30, 45, 60, 75, 90, 105 and 120 minutes during the IV studies and at -30, -15, 0, 3, 6, 9, 12, 15, 20, 30, 45, 60, 75, 90, 105 and 120 minutes during the SC studies. Samples were collected in vacuum blood collection tubes containing disodium EDTA and immediately placed on ice. To prevent proteolytic cleavage of GLP-1(7-37) in the plasma samples, 1.5 ml of the EDTA containing blood were transferred to a polypropylene tube containing 40 μl of aprotinin (10,000 KIU/ml) and mixed well. The samples were centrifuged, and the resulting plasma was transferred to polypropylene test tubes and stored on ice for the duration of the study.
At the conclusion of the experiment, the animal was anesthetized (isoflurane); the catheters were flushed with fresh saline and filled with the glycerol/heparin mixture; the free ends of the catheters were knotted and placed subcutaneously as described earlier; and antibiotic was administered (300 mg Keflex®, I.M.). […]

GLP-1(7-37)OH
Insulin Change at 10 min ([1]; IV dose 0.6 mg/kg): 5.4 ng/mL | Max Insulin Change ([1]; IV dose 0.6 mg/kg): 7.8 ng/mL | Insulin Change AUC ([1]; IV dose 0.6 mg/kg): 79 ± 8 ng·min/mL | Insulin Change at 10 min ([1]; IV dose 0.92 mg/kg): 3.5 ng/mL | Max Insulin Change ([1]; IV dose 0.92 mg/kg): 8.4 ng/mL | Insulin Change AUC ([1]; IV dose 0.92 mg/kg): 75 ± 12 ng·min/mL | Insulin Change at 10 min ([1]; IV dose 1.2 mg/kg): 4.2 ng/mL | Max Insulin Change ([1]; IV dose 1.2 mg/kg): 8.4 ng/mL | Insulin Change AUC ([1]; IV dose 1.2 mg/kg): 77 ± 17 ng·min/mL

Lys^34 -N^ε -octanoyl-GLP-1(7-37)OH [Lys^34-N^ε-octanoyl-GLP-1(7-37)OH]
Insulin Change at 10 min ([1]; IV dose 0.6 mg/kg): 1.3 ng/mL | Max Insulin Change ([1]; IV dose 0.6 mg/kg): 5.0 ng/mL | Insulin Change AUC ([1]; IV dose 0.6 mg/kg): 33 ± 8 ng·min/mL | Insulin Change at 10 min ([1]; IV dose 1.2 mg/kg): 10.0 ng/mL | Max Insulin Change ([1]; IV dose 1.2 mg/kg): 13.1 ng/mL | Insulin Change AUC ([1]; IV dose 1.2 mg/kg): 136 ± 30 ng·min/mL | GIR Change AUC (beagles; 0-60 min, mean ± SEM): 463 ± 12 mg/kg | Insulin Change AUC (beagles; 0-60 min, mean ± SEM): 50 ± 2 ng·min/mL | Max Insulin Change (beagles; 120 minute test period, mean ± SEM): 3.8 ± 1.0 ng/mL | Duration of Insulin Effect (beagles; time average insulin change consistently ≥0.5 ng/ml): 15 min
